We go through 1 compound from patent publication US9586936B2, “Heteroarylamine derivatives as protein kinase inhibitors” (KOREA INSTITUTE OF SCIENCE AND TECHNOLOGY, priority 2014, dated 2017).

One data set is described as follows: microsomal stability. In kind it is in vitro ADME, Rat. The note with it: for microsomal stability (% at time): Rat. How it is done: The microsomal stability of N-(2,6-dichloro-3,5-dimethoxyphenyl)-1-(6-((4-(4-ethylpiperazin-1-yl)phenyl)amino)pyrimidin-4-yl)-1H-benz[d]imidazol-2-amine synthesized in Example 1, as a representative compound of the present invention, was evaluated.

The target of another data set is T1, CYP1A2 (Homo sapiens, UniProt P05177).
T1 sequence (P05177 1-516): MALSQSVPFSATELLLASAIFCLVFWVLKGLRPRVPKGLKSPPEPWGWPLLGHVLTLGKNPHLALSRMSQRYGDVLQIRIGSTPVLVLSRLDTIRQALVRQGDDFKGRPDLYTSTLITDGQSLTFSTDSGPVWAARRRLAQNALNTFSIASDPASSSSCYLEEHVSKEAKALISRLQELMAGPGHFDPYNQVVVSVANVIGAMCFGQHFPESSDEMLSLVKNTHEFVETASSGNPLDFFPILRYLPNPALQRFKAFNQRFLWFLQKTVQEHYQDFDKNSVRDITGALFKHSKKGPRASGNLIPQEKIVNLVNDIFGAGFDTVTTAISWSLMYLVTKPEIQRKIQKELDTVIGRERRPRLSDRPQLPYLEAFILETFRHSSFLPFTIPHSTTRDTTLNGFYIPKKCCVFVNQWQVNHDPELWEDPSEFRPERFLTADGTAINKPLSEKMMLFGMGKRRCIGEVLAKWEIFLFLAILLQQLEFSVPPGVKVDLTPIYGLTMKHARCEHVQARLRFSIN
The data set can be described thus: inhibition activity against CYPs (cytochromes P450). Format: in vitro ADME. How it is done:
The inhibition activity (inhibition rate, %) of N-(2,6-dichloro-3,5-dimethoxyphenyl)-1-(6-((4-(4-ethylpiperazin-1-yl)phenyl)amino)pyrimidin-4-yl)-1H-benz[d]imidazol-2-amine synthesized in Example 1, as a representative compound of the present invention, against CYPs (cytochromes P450) was measured in order to investigate the risk of drug side effects.

For `CCN1CCN(c2ccc(Nc3cc(-n4c(Nc5c(Cl)c(OC)cc(OC)c5Cl)nc5ccccc54)ncn3)cc2)CC1` [Example 1, N-(2,6-dichloro-3,5-dimethoxyphenyl)-1-(6-((4-(4-ethylpiperazin-1-yl)phenyl)amino)pyrimidin-4-yl)-1H-benz[d]imidazol-2-amine], the “microsomal stability (% at time)” value is 100.00% in “microsomal stability” (0 min); 95.53% in “microsomal stability” (5 min); 88.45% in the data set “microsomal stability” (10 min); 82.61% in “microsomal stability” (15 min); 65.16% in the data set “microsomal stability” (30 min); 45.27% in “microsomal stability” (45 min). Besides, the “microsomal stability (% at time)” value in “microsomal stability” (60 min) amounted to 44.31%. In the data set “microsomal stability” (microsomes, Rat microsomal stability), this compound returned a half-life of 39.6 min. Moreover, at CYP1A2 (from 0.1-50 μM, unit from the table's concentration head, read-out: Expected IC50), the IC50 was > 50 µM. Also, the inhibition at 0.1 µM on CYP1A2 (human, concentration 0.1 μM) is 5.36%. Moreover, on CYP1A2 (human, concentration 0.5 μM), the inhibition at 0.5 µM came to 4.67%. Also, the inhibition at 5 µM against CYP1A2 (human, concentration 5 μM) was -1.9%. At CYP1A2 (human, concentration 10 μM), the inhibition at 10 µM is -3.46%. On CYP1A2 (human, concentration 25 μM), the inhibition at 25 µM was -3.11%. Also, at CYP1A2 (human, concentration 50 μM), the inhibition at 50 µM is 2.08%. The “inhibition activity against CYP, statement in words” value against CYP1A2 (summary of Table 5) is recorded as “no inhibition activity”.

Broadly, the half-life is the time needed for the level to fall by half in the phase considered. Low values mean rapid decline, high ones slow decline. The IC50 is the concentration that inhibits the measured activity by half. As a reminder, the inhibition is the relative decrease from the control value, in per cent.
